For data set [1], the system named is EGFP reporter cells (C2C12 cells). As to the kind of experiment: EGFP-SSA assay: uptake of Cas9 protein/gRNA complex into cells (EGFP positive rate). The conditions noted are these: Example 1; compound 250.0 mM; reaction solution 1 (550 mM sodium chloride, 1 mM HEPES, Cas9 protein/gRNA), 30 minutes. The class given is cell-based, mouse.
Text: EGFP-SSA assay: an abbreviation of EGFP-single strand annealing assay. The reporter cassette shown in FIG. 1 is inserted in EGFP reporter cells. In the middle of the EGFP sequence of the cassette, MmDMD-Ex51 sequence is inserted. Since the presence of MmDMD-Ex51 sequence, by which EGFP ORF is divided, EGFP protein is not usually translated. However, when target sequence of MmDMD-Ex51 is cleaved by Cas9 protein/gRNA complex, the upstream region (EG part) and the downstream region (FP part) of EGFP ORF are annealed via a homology area into a single strand, with the result that a full-length EGFP ORF emerges to produce EGFP protein. Based on this principle, the ratio of the number of cells producing EGFP is checked by the EGFP-SSA assay. In this manner, the amount of Cas9 protein/gRNA complex delivered to cells can be predicted.
(§1) Cas9 protein (0.4 μg), tracrRNA (34.18 ng), MmDmd Ex51 crRNA (29.48 ng), a 1 M HEPES buffer (0.05 μL) and a 5 M aqueous sodium chloride solution (5.5 μL) were mixed and diluted with UltraPure DNase/RNase-Free Distilled Water up to a liquid volume of 37.5 μL so as to obtain final concentrations: 8 ng/μL Cas9 protein, 0.68 ng/μL tracrRNA, 0.59 ng/μL MmDmd Ex51 crRNA, 1 mM HEPES, 550 mM sodium chloride, and 250 mM compound. To this solution, a 1000 mM compound solution (12.5 μL) was added and the solution mixture was incubated at normal temperature for 15 minutes.
as §1, with “buffer (2.5” for “buffer (0.05”, “solution (4.85” for “solution (5.5”, “crRNA, 50” for “crRNA, 1”, “HEPES, 485” for “HEPES, 550”, “minutes. Note that, in the cases where the final concentrations of the compound are 0.69 mM, 25 mM, 100 mM, 125 mM, 160 mM, 200 mM and 500 mM, the compound stock solution was diluted with UltraPure DNase/RNase-Free Distilled Water up to concentrations of 2.76 mM, 100 mM, 400 mM, 500 mM, 640 mM, 800 mM and 2000 mM, respectively, and then, added. […]” for “minutes.”
Cas9 protein (2.0 μg), tracrRNA (170.9 ng), MmDmd Ex51 crRNA (147.4 ng), a 1 M HEPES buffer (12.5 μL), a 5 M aqueous sodium chloride solution (18.35 μL) and a 1 M aqueous GABA solution (62.5 μL) were mixed, diluted with UltraPure DNase/RNase-Free Distilled Water up to a liquid volume of 250 μL so as to obtain final concentrations: 8 ng/μL Cas9 protein, 0.68 ng/μL tracrRNA, 0.59 ng/μL MmDmd Ex51 crRNA, 50 mM HEPES, 250 mM GABA and 367 mM sodium chloride, and incubated at normal temperature for 15 minutes. Note that the addition amount of the 5 M aqueous sodium chloride solution was changed to 24.25 μL in the case of 485 mM sodium chloride and the addition amount was changed to 27.5 μL in the case of 550 mM sodium chloride, respectively.

Data set [2] shares this test system. Put plainly: Number of HOECHST cells detected (cell viability) in the EGFP-SSA assay. The settings on record: Example 1, formula (2).
Description: To each of the solutions, a complex of gRNA and Cas9 protein was further dissolved. Mouse myoblasts (C2C12 cells) were contacted with each of the solutions in vitro, and target gene cleavage activity and cell viability were evaluated.
Data set [3] concerns C57BL/6J mouse right lower limb gastrocnemius. As to the kind of experiment: DNA mutation introduction efficiency using mRosa26 gRNA (T7E1 assay) after local administration. The class given is in vivo. On the procedure:
Cas9 protein (20 μg), mRosa26 gRNA (5 μg), 10×PBS (5 μL) and a 2.0 M aqueous 2′-deoxycytidine solution (6.25 μL) were mixed so as to obtain an aqueous solution having final concentrations of 400 ng/μL Cas9 protein, 100 ng/μL mRosa26 gRNA, 533 mM sodium chloride and 250 mM 2′-deoxycytidine. The concentration of the resultant solution was adjusted to be 533 mM with a 5 M aqueous sodium chloride solution, diluted with UltraPure DNase/RNase-Free Distilled Water up to a liquid volume of 50 μL and incubated at normal temperature for 15 minutes. […] The Cas9 protein herein was subjected to buffer replacement with 250 mM sodium chloride by use of Amicon® Ultra 2 mL Centrifugal Filters and then put in use.
Cas9 protein (40 μg), mRosa26 gRNA (10 μg), 10×PBS (5 μL), and a […] compound stock solution (25 μL) were mixed so as to obtain final concentrations: 800 ng/μL Cas9 protein, 200 ng/μL mRosa26 gRNA, 533 mM sodium chloride and 250 mM compound. […]
To the right lower limb gastrocnemius of each of 9 weeks-old male C57BL/6J mice (CLEA Japan, Inc), administration solution 1 or administration solution 2 and PBS (50 μL) were administered. […] The resultant PCR product was purified by QIAquick PCR purification kit (QIAGEN), treated with T7 Endonuclease I (NEB) and analyzed by Agilent 4200 TapeStation (Agilent). […]
As shown in FIG. 10 and FIG. 11, to find statistical significant difference between GABA and each conditions of the compounds, Dunnett's multiple comparison test using DNA mutation introduction efficiency, Indel (%), and exon skipping efficiency, was carried out. It was determined that if P value is less than 0.05, these is a statistically significant difference. […]
A solution for transduction containing 2′-deoxycytidine as a compound (A3) and sodium chloride as the (B) salt was prepared. […] Administration solution 1 was locally administered to the mouse right lower limb gastrocnemius and the activity to cleave a target gene was evaluated. […]

The subject of data set [4] is EGFP reporter cells (C2C12 cells). As to the kind of experiment: EGFP-SSA assay: uptake of Cas9 protein/gRNA complex into cells (EGFP positive rate). The format is cell-based, mouse. The conditions noted are these: Example 1; compound 100.0 mM; reaction solution 1 (550 mM sodium chloride, 1 mM HEPES, Cas9 protein/gRNA), 30 minutes.

SMILES strings stand for the structures.

With `O=CC[C@@H](O)[C@H](O)[C@H](O)COP(=O)(O)O` [Oxy-D-glucose-6-phosphate, 2-deoxy-D-glucose-6-phosphate], the “Compound activity: EGFP positive rate (%)” value in data set [1] stood at 1.38%. In addition, the “Relative ratio to GABA: Number of HOECHST cells” value in data set [2] (compound 250.0 mM vs 250 mM GABA positive control on the same plate) came out at 1.06. The “Genome editing efficiency (indel (%)) compared to 250 mM GABA” value in data set [3] (Example 6, administration solution 2: 25 mM or 250 mM 2′-deoxycytidine, 6-phospho-D-gluconic acid, N-carbamyl-L-aspartic acid or 2-deoxy-D-glucose-6-phosphate, 533 mM sodium chloride, 50 μL once, Dunnett's test, FIG. 10) was “statistically significant results compared to GABA”.
Consider `Nc1ccn([C@H]2C[C@H](O)[C@@H](CO)O2)c(=O)n1` [2′-Deoxycytidine], for which, in data set [2] (compound 100.0 mM vs 250 mM GABA positive control on the same plate), the “Relative ratio to GABA: Number of HOECHST cells” value turned out to be 1.01. Besides, the “Compound activity: EGFP positive rate (%)” value in data set [4] is 1.10%. The “Genome editing (mutation introduction efficiency, indel (%))” value in data set [3] (Example 5, administration solution 1: 250 mM 2′-deoxycytidine, sodium chloride 163, 233, 333, 433 or 533 mM, mRosa26 gRNA/Cas9, 50 μL for 3 consecutive days, FIG. 9) was “Genome editing was confirmed”.

For the origin of these results see patent US12673022B2, “Drug delivery system using solution” (Kyoto University, priority 2018, dated 2026).
